The values that follow come from ChEMBL document CHEMBL5512677, “Site-Specific Antimicrobial Activity of a Dual-Responsive Ciprofloxacin Prodrug” (J Med Chem, 2024).

Series [1] concerns Escherichia coli. Kind of series: Antibacterial activity against Escherichia coli HB101 assessed as reduction in bacterial growth by measuring minimum inhibitory concentration incubated for 16 to 20 hrs by serial dilution method. The class given is functional. Particulars: time 16-20 hrs.
Series [2] has as its system Escherichia coli. Kind of series: Antibacterial activity against Escherichia coli E38 assessed as reduction in bacterial growth by measuring minimum inhibitory concentration incubated for 16 to 20 hrs by serial dilution method. Particulars: time 16-20 hrs. It counts as functional.
In series [3] the test system is Escherichia coli. Kind of series: Antibacterial activity against Escherichia coli HB101 assessed as reduction in bacterial growth by measuring minimum bactericidal concentration incubated for 16 to 20 hrs by serial dilution method. It counts as functional. Particulars: time 16-20 hrs.
Series [4] concerns Escherichia coli. Kind of series: Antibacterial activity against Escherichia coli E38 assessed as reduction in bacterial growth by measuring minimum bactericidal concentration incubated for 16 to 20 hrs by serial dilution method. The class given is functional. Particulars: time 16-20 hrs.
In series [5] the test system is Escherichia coli. Kind of series: Antibacterial activity against Escherichia coli E38 assessed as reduction in bacterial growth pre-triggered with nitroreductase for 1 hr followed by bacterial infection and measured after 16 hrs by spectrometer. The class given is functional. Particulars: time 17 hrs.
The subject of series [6] is Escherichia coli. Kind of series: Antibacterial activity against Escherichia coli E38 assessed as reduction in bacterial growth pre-triggered with H2S for 1 hr followed by bacterial infection and measured after 16 hrs by spectrometer. The class given is functional. The conditions noted are these: time 17 hrs.
For series [7], the system named is Escherichia coli. Kind of series: Antibacterial activity against Escherichia coli E38 assessed as reduction in bacterial growth pre-triggered with nitroreductase and H2S for 1 hr followed by bacterial infection and measured after 16 hrs by spectrometer. It counts as functional. The conditions noted are these: time 17 hrs.
Series [8] can be described thus: Prodrug activation in phosphate buffer saline assessed as Escherichia coli nitroreductase mediated ciprofloxacin metabolite formation measured upto 60 mins in presence of NADH by HPLC analysis. It counts as ADME. The conditions noted are these: isolated protein, 1 h.
Series [9] deals with Escherichia coli. Kind of series: Antibacterial activity against Escherichia coli E38 harboring high NTR expression and H2S assessed as reduction in bacterial survival incubated for 16 hrs by spectrometric analysis. The class given is functional, organism-based.
Series [10] has as its system Escherichia coli. Kind of series: Antibacterial activity against Escherichia coli E38 assessed as reduction in bacterial survival rate pre-triggered with nitroreductase for 1 hr followed by bacterial infection and measured after 16 hrs by spectrometer. It counts as functional, organism-based. The conditions noted are these: time 17.0 hrs.
The subject of series [11] is Escherichia coli. Kind of series: Antibacterial activity against Escherichia coli E38 assessed as reduction in bacterial survival rate pre-triggered with NaSH for 1 hr followed by bacterial infection and measured after 16 hrs by spectrometer. It counts as functional, organism-based. Particulars: time 17.0 hrs.
The subject of series [12] is Escherichia coli. Kind of series: Antibacterial activity against Escherichia coli E38 assessed as reduction in bacterial survival rate pre-triggered with nitroreductase and NaSH for 1 hr followed by bacterial infection and measured after 16 hrs by spectrometer. It counts as functional, organism-based. The conditions noted are these: time 17.0 hrs.
The test system of series [13] is Escherichia coli. Kind of series: Antibacterial activity against Escherichia coli E38 infected in female Swiss Webster mouse skin abscess model assessed as reduction in bacterial load at 20 mg/kg, sc measured after 3 days. The conditions noted are these: time 3.0 day. It counts as functional, organism-based.
Series [14] has as its system Staphylococcus aureus. Kind of series: Antibacterial activity against Staphylococcus aureus BB255 assessed as reduction in bacterial growth by measuring minimum inhibitory concentration incubated for 16 to 20 hrs by serial dilution method. It counts as functional. Particulars: time 16-20 hrs.
For series [15], the system named is Staphylococcus aureus. Kind of series: Antibacterial activity against Staphylococcus aureus BB255 assessed as reduction in bacterial growth by measuring minimum bactericidal concentration incubated for 16 to 20 hrs by serial dilution method. The conditions noted are these: time 16-20 hrs. The class given is functional.
The nature of series [16]: Prodrug activation in phosphate buffer saline assessed as Escherichia coli nitroreductase mediated ciprofloxacin metabolite formation measured after 5 mins in presence of NADH by HPLC analysis. Particulars: isolated protein. It counts as ADME.
Series [17] can be described thus: Prodrug activation in phosphate buffer saline assessed as Escherichia coli nitroreductase mediated ciprofloxacin metabolite formation measured after 60 mins in presence of NADH by HPLC analysis. The class given is ADME. The conditions noted are these: isolated protein, 1 h.
Series [18] can be described thus: Retention time of the compound by HPLC analysis. The class given is physicochemical.
Series [19] deals with Escherichia coli. Kind of series: Antibacterial activity against Escherichia coli E38 infected in female Swiss Webster mouse skin abscess model assessed as log reduction in bacterial load at 20 mg/kg, sc measured after 3 days relative to control. Particulars: time 3 day. The class given is functional.
For series [20], the system named is Escherichia coli. Kind of series: Antibacterial activity against Escherichia coli HB101 at 0.5 to 2 times MIC measured after 30 days by broth microdilution method. It counts as functional, organism-based. The conditions noted are these: time 30.0 day. (Broth dilution looks for growth in wells or tubes with falling amounts of substance.)
The nature of series [21]: Prodrug activation in phosphate buffer saline assessed as Escherichia coli nitroreductase mediated intermediate formation measured after 60 mins in presence of NADH and 10 ug/ml of NTR by HPLC analysis. The conditions noted are these: isolated protein, 1 h.
In series [22] the test system is Escherichia coli. Kind of series: Antibacterial activity against Escherichia coli E38 assessed as reduction in bacterial survival rate by measuring fold reduction in MIC pre-triggered with nitroreductase for 1 hr followed by bacterial infection and measured after 16 hrs by spectrometer. The class given is functional. Particulars: time 17 hrs.
In series [23] the test system is Escherichia coli. Kind of series: Antibacterial activity against Escherichia coli HB101 at 0.5 to 2 times MIC measured after 27 days by broth microdilution method. Particulars: time 27.0 day. It counts as functional, organism-based.
Series [24] relates to Escherichia coli. Kind of series: Antibacterial activity against Escherichia coli E38 assessed as reduction in bacterial survival rate by measuring fold reduction in MIC pre-triggered with H2S for 1 hr followed by bacterial infection and measured after 16 hrs by spectrometer. The class given is functional. Particulars: time 17 hrs.
Series [25] is described as follows: Prodrug activation in phosphate buffer saline assessed as Escherichia coli nitroreductase mediated ciprofloxacin metabolite formation measured after 120 mins in presence of NADH by HPLC analysis. Particulars: isolated protein, 2 h. It counts as ADME.
Series [26] in a line: Prodrug activation in phosphate buffer saline assessed as Escherichia coli nitroreductase mediated ciprofloxacin metabolite formation by measuring retention time measured after 180 mins in presence of NADH by HPLC analysis. It counts as ADME. Particulars: isolated protein, 3 h.

≈ marks a conversion by molar mass, not a printed value. Calls of active or inactive are those of the source.

By MIC is commonly meant the smallest concentration in the dilution series that meets the test's criterion for growth inhibition. As usually defined, the MBC is the smallest concentration meeting the test's criterion for killing. For `C[C@H](NC(=O)c1cn(C2CC2)c2cc(N3CCNCC3)c(F)cc2c1=O)c1ccc([N+](=O)[O-])cc1`, the MIC is 1 µg/mL (≈ 2.09 µM) in the series on Escherichia coli [1]; 4 µg/mL (≈ 8.34 µM) with Escherichia coli [2]; 4 µg/mL (≈ 8.34 µM) in the series with Escherichia coli [5]; 4 µg/mL (≈ 8.34 µM) in the series with Escherichia coli [6]; 4 µg/mL (≈ 8.34 µM) with Escherichia coli [7]. For the same compound, the results for the MBC with Escherichia coli [3] and in the series with Escherichia coli [4] were 1 µg/mL (≈ 2.09 µM) and 4 µg/mL (≈ 8.34 µM), respectively. For the same compound, the Drug metabolism result in series [8] is “Metabolite_Notdetected”. Besides, the outcome with Escherichia coli [9], in the series on Escherichia coli [10], in the series on Escherichia coli [11] and with Escherichia coli [12] was inactive. Moreover, in the series with Escherichia coli [13], the result was Active.

For the compound `O=C(OCc1ccc([N+](=O)[O-])cc1)c1cn(C2CC2)c2cc(N3CCNCC3)c(F)cc2c1=O`, the minimum inhibitory concentration (MIC) is 0.5 µg/mL (≈ 1.07 µM) with Escherichia coli [1], 16 µg/mL (≈ 34.3 µM) in the series on Staphylococcus aureus [14], 1 µg/mL (≈ 2.14 µM) in the series on Escherichia coli [2] and 0.063 µg/mL (≈ 0.135 µM) with Escherichia coli [5]. The MBC in the series on Escherichia coli [3] was 1 µg/mL (≈ 2.14 µM); with Staphylococcus aureus [15] it was more than 128 µg/mL; with Escherichia coli [4], 2 µg/mL (≈ 4.29 µM). Further, the Drug metabolism entry in series [16] is recorded as “Metabolite_Detected”; in [8] it was “Metabolite_Detected”; in [17], “Metabolite_Notdetected”; in series [21], “Metabolite_Notdetected”. This compound also showed a Retention_time in [18] of 4.7 min. The result with Escherichia coli [9] was inactive. Also, the result in the series with Escherichia coli [10] and in the series on Escherichia coli [20] was Active. Further, the “log(activity)” value with Escherichia coli [19] turned out to be 2. Further, in the series with Escherichia coli [22], the “fold change (FC)” value stood at 16.

With `O=C(O)c1cn(C2CC2)c2cc(N3CCNCC3)c(F)cc2c1=O` [CIPROFLOXACIN], the MIC in the series with Staphylococcus aureus [14] worked out at 0.25 µg/mL (≈ 0.754 µM). Further, the MBC with Escherichia coli [3] came to 0.004 µg/mL (≈ 0.0121 µM); in the series on Staphylococcus aureus [15], 0.5 µg/mL (≈ 1.51 µM); in the series on Escherichia coli [4] it was 0.015 µg/mL (≈ 0.0453 µM). Also, the outcome in the series with Escherichia coli [10] was Active.

With `[N-]=[N+]=Nc1ccc(COC(=O)N2CCN(c3cc4c(cc3F)c(=O)c(C(=O)O)cn4C3CC3)CC2)cc1`, the MIC is 0.5 µg/mL (≈ 0.987 µM) with Escherichia coli [1], 4 µg/mL (≈ 7.9 µM) with Staphylococcus aureus [14], 1 µg/mL (≈ 1.97 µM) with Escherichia coli [2] and 0.063 µg/mL (≈ 0.124 µM) with Escherichia coli [6]. Further, the MBC in the series with Escherichia coli [3] was 0.5 µg/mL (≈ 0.987 µM); with Staphylococcus aureus [15], more than 128 µg/mL; in the series on Escherichia coli [4], 2 µg/mL (≈ 3.95 µM). Further, the Retention_time in series [18] is given as 12.4 min. For the same compound, the outcome in the series on Escherichia coli [9] and in the series on Escherichia coli [23] was inactive. Also, the result in the series with Escherichia coli [11] was Active. Moreover, in the series with Escherichia coli [19], the “log(activity)” value is listed as 2. For the same compound, the “fold change (FC)” value in the series on Escherichia coli [24] worked out at 16.

Consider `[N-]=[N+]=Nc1ccc(COC(=O)N2CCN(c3cc4c(cc3F)c(=O)c(C(=O)OCc3ccc([N+](=O)[O-])cc3)cn4C3CC3)CC2)cc1`, for which the minimum inhibitory concentration (MIC) with Escherichia coli [1] was 32 µg/mL (≈ 49.9 µM); with Staphylococcus aureus [14], more than 128 µg/mL; in the series with Escherichia coli [2] it was more than 16 µg/mL; in the series on Escherichia coli [5] it was more than 16 µg/mL; in the series with Escherichia coli [6], 2 µg/mL (≈ 3.12 µM); with Escherichia coli [7], 0.25 µg/mL (≈ 0.39 µM). The MBC in the series on Escherichia coli [3] was 32 µg/mL (≈ 49.9 µM); with Staphylococcus aureus [15] it was more than 128 µg/mL; in the series on Escherichia coli [4] it was more than 128 µg/mL. Moreover, the Retention_time was 15.2 min in series [18] and 2.2 min in [26]. Further, the Drug metabolism entry in [25] was “Metabolite_Detected”. Moreover, the outcome in the series with Escherichia coli [9] and with Escherichia coli [10] was inactive. In addition, the result with Escherichia coli [12] and with Escherichia coli [20] was Active. For the same compound, the “log(activity)” value in the series with Escherichia coli [19] came to 2.
